Laboratory results from the supplement of paper PMC4862054.

Legend:
Test in all cases: normalised response (% of control), CellTox Green; higher = less cell death (100 = DMSO, 0 = benzethonium chloride kill control)
Conditions in all cases: incubation time: 72 h
BT-474 = test system: BT-474
Outline: (§1)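 Plates were normalised with 0.1 % DMSO as 100 and a positive kill control as 0. Breast cancer cell lines in 20 µl suspension had been seeded into 384-well plates with compound at 5 concentrations in 10-fold steps over a compound-specific 10,000-fold range, incubated 72 h, and read for CellTox Green fluorescence (485/520 nm) followed by CellTiter-Glo luminescence. Each value is the normalised signal at a single concentration.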

BT-549 = test system: BT-549
Outline: as §1

CAL-120 = test system: CAL-120
Outline: as §1

CAL-148 = test system: CAL-148
Outline: as §1

CAL-51 = test system: CAL-51
Outline: as §1

CAL-85-1 = test system: CAL-85-1
Outline: as §1

DU-4475 = test system: DU-4475
Outline: as §1

HCC1143 = test system: HCC1143
Outline: as §1

HCC1599 = test system: HCC1599
Outline: as §1

HCC1937 = test system: HCC1937
Outline: as §1

HDQ-P1 = test system: HDQ-P1
Outline: as §1

Hs578T = test system: Hs578T
Outline: as §1

MCF-10A = test system: MCF-10A
Outline: as §1

MDA-MB-231 = test system: MDA-MB-231
Outline: as §1

MDA-MB-436 = test system: MDA-MB-436
Outline: as §1

MDA-MB-453 = test system: MDA-MB-453
Outline: as §1

MDA-MB-468 = test system: MDA-MB-468
Outline: as §1

MFM-223 = test system: MFM-223
Outline: as §1

| Compound | normalised response (BT-474) [%] | normalised response (BT-549) [%] | normalised response (CAL-120) [%] | normalised response (CAL-148) [%] | normalised response (CAL-51) [%] | normalised response (CAL-85-1) [%] | normalised response (DU-4475) [%] | normalised response (HCC1143) [%] | normalised response (HCC1599) [%] | normalised response (HCC1937) [%] | normalised response (HDQ-P1) [%] | normalised response (Hs578T) [%] | normalised response (MCF-10A) [%] | normalised response (MDA-MB-231) [%] | normalised response (MDA-MB-436) [%] | normalised response (MDA-MB-453) [%] | normalised response (MDA-MB-468) [%] | normalised response (MFM-223) [%] |
| --- | --- | --- | --- | --- | --- | --- | --- | --- | --- | --- | --- | --- | --- | --- | --- | --- | --- | --- |
| CO[C@H]1/C=C\C=C(/C)C(=O)NC2=CC(=O)C(NCCN(C)C)=C(C[C@@H](C)C[C@H](OC)[C@H](O)[C@@H](C)/C=C(\C)[C@@H]1OC(N)=O)C2=O [Alvespimycin] (1000 nM) | 61.3 | 107 | 87.5 | 45.8 | 69.6 | 33.3 | 79.2 | -15.9 | 104 | 34.5 | 80 | -33.1 | 23.5 | 33 | 106 | 82.7 | 34.9 | 86.5 |
| Cc1ccc(C(=O)Nc2ccc(CN3CCN(C)CC3)c(C(F)(F)F)c2)cc1C#Cc1cnc2cccnn12 [Ponatinib] (1000 nM) | 92.3 | 59.4 | 59.5 | 60.9 | 57.4 | 60.8 | 93.3 | 71.3 | 103 | 15 | 76.6 | 24.4 | 97 | -32.9 | 95.6 | 103 | 164 | 96.4 |
| Cn1c(Nc2ccc(C(F)(F)F)cc2)nc2cc(Oc3ccnc(-c4ncc(C(F)(F)F)[nH]4)c3)ccc21 [RAF265] (1000 nM) | 98.1 | 81.7 | 100 | 80.4 | 96.3 | 55.5 | 99.4 | 122 | 110 | 82 | 109 | 118 | 75.4 | 113 | 107 | 102 | 145 | 21.6 |
| CN[C@@H]1C[C@H]2O[C@@](C)([C@@H]1OC)n1c3ccccc3c3c4c(c5c6ccccc6n2c5c31)C(=O)N[C@H]4O [UCN-01] (1000 nM) | 70.9 | 78.7 | 59.7 | 89.2 | 40.2 | 29.5 | 78.3 | 53.2 | 79.3 | 106 | 63.7 | 47.3 | -24.5 | 32.6 | 94.5 | 91.4 | 59.7 | 67.8 |
| CN(N=O)C(=O)N[C@@H](C=O)[C@@H](O)[C@H](O)[C@H](O)CO [Streptozocin] (1000 nM) | 97.2 | 99.5 | 106 | – | 95.2 | 110 | 107 | 113 | 103 | 99.3 | 92.3 | 99 | 53.9 | 96.8 | 106 | 108 | 90.8 | 98.3 |
| CCC1=C[C@@H]2CN(C1)Cc1c([nH]c3ccccc13)[C@@](C(=O)OC)(c1cc3c(cc1OC)N(C)[C@H]1[C@@](O)(C(=O)OC)[C@H](OC(C)=O)[C@]4(CC)C=CCN5CC[C@]31[C@@H]54)C2 [Vinorelbine] (1000 nM) | 61.2 | 63.8 | 91.7 | 54.8 | 18.8 | 68.7 | 96.7 | 104 | 79.5 | 92.5 | -18.4 | 27.5 | 26.6 | 20.9 | 76.9 | 101 | 98.1 | 55.2 |
| CC1(C)NC(=O)N(c2ccc([N+](=O)[O-])c(C(F)(F)F)c2)C1=O [Nilutamide] (1000 nM) | 102 | 123 | 101 | 92 | 103 | 103 | 103 | 72.8 | 107 | 98 | 88.5 | 100 | 115 | 115 | 103 | 94 | 115 | 95.9 |
| Oc1nc(-c2ccc(C(F)(F)F)cc2)nc2c1CSCC2 [XAV-939] (1000 nM) | 101 | 106 | 102 | 101 | 102 | 103 | 101 | 96.1 | 100 | 114 | 77.1 | 88.9 | 67.7 | 102 | 102 | 102 | 118 | 99.9 |
| Cc1ccc(-n2nc(C(C)(C)C)cc2NC(=O)Nc2ccc(OCCN3CCOCC3)c3ccccc23)cc1 [Doramapimod] (1000 nM) | 97.6 | 93.2 | 96.1 | 104 | 101 | 113 | 95.2 | 104 | 83.8 | 109 | 89.6 | 82.6 | 101 | 102 | 87.7 | 105 | 122 | 100 |
| CN[C@@H]1C[C@H]2O[C@@](C)([C@@H]1OC)n1c3ccccc3c3c4c(c5c6ccccc6n2c5c31)C(=O)N[C@H]4O [UCN-01] (10000 nM) | 24.5 | 43.8 | 18.1 | 40.4 | 33.5 | -33.4 | 76.1 | 72 | 80.9 | 95.6 | 43.6 | -27.6 | -57.5 | 1.94 | 83.2 | 78.3 | 180 | 78.1 |
| Clc1ccc(Nc2nnc(Cc3ccncc3)c3ccccc23)cc1 [Vatalanib] (10000 nM) | 102 | 118 | 102 | 53.2 | 109 | 76.8 | 107 | 125 | 114 | 123 | 114 | 78.7 | 55.9 | 129 | 107 | 105 | 86.5 | 97.1 |
| Cn1c(Nc2ccc(C(F)(F)F)cc2)nc2cc(Oc3ccnc(-c4ncc(C(F)(F)F)[nH]4)c3)ccc21 [RAF265] (100 nM) | 100 | – | 100 | 107 | 100 | 86.3 | 105 | 96.9 | 98.6 | 109 | 113 | 107 | 107 | 114 | 94.9 | 105 | 115 | 102 |
| CCC1(c2ccc(N)cc2)CCC(=O)NC1=O (stereo not given) [Aminoglutethimide] (1000 nM) | 102 | 117 | 99.8 | 104 | 83.5 | 105 | 99.2 | 106 | 96.2 | 97.3 | 104 | 71.8 | 109 | 76.7 | 98.2 | 101 | 177 | 97.6 |
| Oc1nc(-c2ccc(C(F)(F)F)cc2)nc2c1CSCC2 [XAV-939] (10000 nM) | 103 | 104 | 93.8 | 101 | 79.7 | 105 | 103 | 103 | 103 | 93.2 | 71.7 | 65.4 | 103 | 101 | 95.5 | 94.1 | 115 | 101 |
| O=P1(NCCCl)OCCCN1CCCl (stereo not given) [Ifosfamide] (1000 nM) | 98.2 | 107 | 99.5 | 100 | 95.4 | 100 | 95.8 | 107 | 98.7 | 70.1 | 67.6 | 89.2 | 90 | 96.2 | 58.7 | 107 | 139 | 94.9 |
| CO[C@H]1/C=C\C=C(/C)C(=O)NC2=CC(=O)C(NCCN(C)C)=C(C[C@@H](C)C[C@H](OC)[C@H](O)[C@@H](C)/C=C(\C)[C@@H]1OC(N)=O)C2=O [Alvespimycin] (100 nM) | 76.6 | 130 | 95 | 48.7 | 60.4 | 71.6 | 68.1 | 69.1 | 107 | 118 | 75.2 | 101 | 33.3 | 67.9 | 89.6 | 91.4 | 104 | 89.6 |
| Clc1ccc(Nc2nnc(Cc3ccncc3)c3ccccc23)cc1 [Vatalanib] (1000 nM) | 97.2 | 137 | 92.8 | 98.1 | 109 | 104 | 101 | 64.7 | 104 | 134 | 105 | 105 | 84.5 | 118 | 102 | 104 | 138 | 103 |
| C[C@@H](Oc1cc(-c2cnn(C3CCNCC3)c2)cnc1N)c1c(Cl)ccc(F)c1Cl [Crizotinib] (1000 nM) | 98.9 | 131 | 102 | 97.2 | 83.6 | 76.1 | 107 | 131 | 111 | 87 | 72.7 | 103 | 95.9 | 115 | 57.6 | 98.3 | 123 | 78.6 |
| CCC1(c2ccc(N)cc2)CCC(=O)NC1=O (stereo not given) [Aminoglutethimide] (10000 nM) | 90 | 104 | 99.7 | 97 | 115 | 89.5 | 95.9 | 59.1 | 101 | 110 | 107 | 127 | 102 | 112 | 91.5 | 96.9 | 69 | 102 |
